Laboratory results from the supplement of paper PMC10307832.

Key:
Assay in all cases: relative viability (nuclei count vs DMSO), 5 days (fraction); higher = more cells survive
A549 = system: A549
Procedure, shortened: (§1)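 The day after seeding in 1536-well plates, lung cancer cell lines were treated by pin tool with a single drug, or with a fixed anchor-drug dose together with five library-drug doses (not always all listed) in √10 steps. After 5 days, a combined fix-and-stain solution (final 0.05% Triton X-100, 1% formaldehyde, 1 ug/ml Hoechst) was added. Nuclei counted on 4× images gave relative viability as treated counts over vehicle counts, reported as the median of duplicate plates.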

Calu-6 = system: Calu-6
Procedure, shortened: as §1

EBC-1 = system: EBC-1
Procedure, shortened: as §1

HCC-366 = system: HCC-366
Procedure, shortened: as §1

IA-LM = system: IA-LM
Procedure, shortened: as §1

LOU-NH91 = system: LOU-NH91
Procedure, shortened: as §1

LXF-289 = system: LXF-289
Procedure, shortened: as §1

NCI-H1299 = system: NCI-H1299
Procedure, shortened: as §1

NCI-H1437 = system: NCI-H1437
Procedure, shortened: as §1

NCI-H1623 = system: NCI-H1623
Procedure, shortened: as §1

NCI-H1703 = system: NCI-H1703
Procedure, shortened: as §1

NCI-H2085 = system: NCI-H2085
Procedure, shortened: as §1

NCI-H3122 = system: NCI-H3122
Procedure, shortened: as §1

HCC-44 = system: HCC-44
Procedure, shortened: as §1

Nc1ccn([C@@H]2O[C@H](CO)[C@@H](O)[C@@H]2O)c(=O)n1 [Cytarabine] + COc1cc2c(Oc3ccc(NC(=O)C4(C(=O)Nc5ccc(F)cc5)CC4)cc3F)ccnc2cc1OCCCN1CCOCC1 [Foretinib] (partner 0.25 µM)
relative viability (A549; first compound 0.005 µM): 0.622
relative viability (A549; first compound 0.01581 µM): 0.629
relative viability (A549; first compound 0.05 µM): 0.336
relative viability (A549; first compound 0.1581 µM): 0.071
relative viability (A549; first compound 0.5 µM): 0.0358
relative viability (Calu-6; first compound 0.005 µM): 0.796
relative viability (Calu-6; first compound 0.01581 µM): 0.702
relative viability (Calu-6; first compound 0.05 µM): 0.707
relative viability (Calu-6; first compound 0.1581 µM): 0.405
relative viability (Calu-6; first compound 0.5 µM): 0.233
relative viability (EBC-1; first compound 0.005 µM): 0.0948
relative viability (EBC-1; first compound 0.01581 µM): 0.0902
relative viability (EBC-1; first compound 0.05 µM): 0.0964
relative viability (EBC-1; first compound 0.1581 µM): 0.0746
relative viability (EBC-1; first compound 0.5 µM): 0.076
relative viability (HCC-366; first compound 0.005 µM): 0.991
relative viability (HCC-366; first compound 0.01581 µM): 0.831
relative viability (HCC-366; first compound 0.05 µM): 0.584
relative viability (HCC-366; first compound 0.1581 µM): 0.119
relative viability (HCC-366; first compound 0.5 µM): 0.105
relative viability (IA-LM; first compound 0.005 µM): 0.802
relative viability (IA-LM; first compound 0.01581 µM): 1.05
relative viability (IA-LM; first compound 0.05 µM): 0.916
relative viability (IA-LM; first compound 0.1581 µM): 0.592
relative viability (IA-LM; first compound 0.5 µM): 0.246
relative viability (LOU-NH91; first compound 0.005 µM): 0.993
relative viability (LOU-NH91; first compound 0.01581 µM): 0.926
relative viability (LOU-NH91; first compound 0.05 µM): 0.869
relative viability (LOU-NH91; first compound 0.1581 µM): 0.585
relative viability (LOU-NH91; first compound 0.5 µM): 0.712
relative viability (LXF-289; first compound 0.005 µM): 0.939
relative viability (LXF-289; first compound 0.01581 µM): 0.961
relative viability (LXF-289; first compound 0.05 µM): 0.749
relative viability (LXF-289; first compound 0.1581 µM): 0.412
relative viability (LXF-289; first compound 0.5 µM): 0.299
relative viability (NCI-H1299; first compound 0.005 µM): 1.15
relative viability (NCI-H1299; first compound 0.01581 µM): 1.13
relative viability (NCI-H1299; first compound 0.05 µM): 1.05
relative viability (NCI-H1299; first compound 0.1581 µM): 1.12
relative viability (NCI-H1299; first compound 0.5 µM): 1.16
relative viability (NCI-H1437; first compound 0.005 µM): 0.973
relative viability (NCI-H1437; first compound 0.01581 µM): 0.922
relative viability (NCI-H1437; first compound 0.05 µM): 0.626
relative viability (NCI-H1437; first compound 0.1581 µM): 0.287
relative viability (NCI-H1437; first compound 0.5 µM): 0.251
relative viability (NCI-H1623; first compound 0.005 µM): 0.695
relative viability (NCI-H1623; first compound 0.01581 µM): 0.545
relative viability (NCI-H1623; first compound 0.05 µM): 0.375
relative viability (NCI-H1623; first compound 0.1581 µM): 0.463
relative viability (NCI-H1623; first compound 0.5 µM): 0.577
relative viability (NCI-H1703; first compound 0.005 µM): 0.251
relative viability (NCI-H1703; first compound 0.01581 µM): 0.273
relative viability (NCI-H1703; first compound 0.05 µM): 0.253
relative viability (NCI-H1703; first compound 0.1581 µM): 0.195
relative viability (NCI-H1703; first compound 0.5 µM): 0.158
relative viability (NCI-H2085; first compound 0.005 µM): 0.994
relative viability (NCI-H2085; first compound 0.01581 µM): 0.847
relative viability (NCI-H2085; first compound 0.05 µM): 0.75
relative viability (NCI-H2085; first compound 0.1581 µM): 0.555
relative viability (NCI-H2085; first compound 0.5 µM): 0.475
relative viability (NCI-H3122; first compound 0.005 µM): 0.887
relative viability (NCI-H3122; first compound 0.01581 µM): 0.805
relative viability (NCI-H3122; first compound 0.05 µM): 0.777
relative viability (NCI-H3122; first compound 0.1581 µM): 0.509
relative viability (NCI-H3122; first compound 0.5 µM): 0.344

Nc1ccn([C@@H]2O[C@H](CO)[C@@H](O)[C@@H]2O)c(=O)n1 [Cytarabine] + N=C(N)NC(=N)NCCc1ccccc1 [Phenformin] (partner 250 µM)
relative viability (A549; first compound 0.005 µM): 0.104
relative viability (A549; first compound 0.01581 µM): 0.127
relative viability (A549; first compound 0.05 µM): 0.106
relative viability (A549; first compound 0.1581 µM): 0.0512
relative viability (A549; first compound 0.5 µM): 0.0301
relative viability (HCC-366; first compound 0.005 µM): 0.617
relative viability (HCC-366; first compound 0.01581 µM): 0.586
relative viability (HCC-366; first compound 0.05 µM): 0.528
relative viability (HCC-366; first compound 0.1581 µM): 0.2
relative viability (HCC-366; first compound 0.5 µM): 0.0951
relative viability (HCC-44; first compound 0.005 µM): 0.161
relative viability (HCC-44; first compound 0.01581 µM): 0.15
relative viability (HCC-44; first compound 0.05 µM): 0.142
relative viability (HCC-44; first compound 0.1581 µM): 0.113
relative viability (HCC-44; first compound 0.5 µM): 0.108
relative viability (LOU-NH91; first compound 0.005 µM): 0.732
relative viability (LOU-NH91; first compound 0.01581 µM): 0.75
relative viability (LOU-NH91; first compound 0.05 µM): 0.467
relative viability (LOU-NH91; first compound 0.1581 µM): 0.413
relative viability (LOU-NH91; first compound 0.5 µM): 0.508
relative viability (LXF-289; first compound 0.005 µM): 0.413
relative viability (LXF-289; first compound 0.01581 µM): 0.406
relative viability (LXF-289; first compound 0.05 µM): 0.341
relative viability (LXF-289; first compound 0.1581 µM): 0.129
relative viability (LXF-289; first compound 0.5 µM): 0.0821
relative viability (NCI-H1437; first compound 0.005 µM): 0.199
relative viability (NCI-H1437; first compound 0.01581 µM): 0.183
relative viability (NCI-H1437; first compound 0.05 µM): 0.17
relative viability (NCI-H1437; first compound 0.5 µM): 0.105
relative viability (NCI-H1623; first compound 0.005 µM): 0.432
relative viability (NCI-H1623; first compound 0.01581 µM): 0.396
relative viability (NCI-H1623; first compound 0.05 µM): 0.357
relative viability (NCI-H1623; first compound 0.1581 µM): 0.402
relative viability (NCI-H1623; first compound 0.5 µM): 0.431
relative viability (NCI-H2085; first compound 0.005 µM): 0.746
relative viability (NCI-H2085; first compound 0.01581 µM): 0.67
relative viability (NCI-H2085; first compound 0.05 µM): 0.757
relative viability (NCI-H2085; first compound 0.1581 µM): 0.413
relative viability (NCI-H2085; first compound 0.5 µM): 0.362
relative viability (NCI-H3122; first compound 0.005 µM): 0.347
relative viability (NCI-H3122; first compound 0.01581 µM): 0.323
relative viability (NCI-H3122; first compound 0.05 µM): 0.293
relative viability (NCI-H3122; first compound 0.1581 µM): 0.244
relative viability (NCI-H3122; first compound 0.5 µM): 0.18
